Values after ≈ are worked out from the molar mass of the structure shown. Counter-ions that a name gives are not always drawn. Like-named read-outs stand apart in the source and are kept apart here.
Key:
[1] = test system: C. diff. (ATCC43255); experiment: clindamycin-induced C. diff. infection model in Syrian golden hamsters; assay type: in vivo; details: 50 mg/kg PO bid for 3 days, n = 6 hamsters
Description: Compound 359E was given orally as a suspension in 1% carboxymethylcellulose to Syrian Golden hamsters, pretreated subcutaneously with clindamycin and infected orally with C. diff. (ATCC43255) as described in Table 5.

[2] = test system: C. difficile; experiment: agar dilution MIC assay of anaerobic bacteria; assay type: cell-based, Clostridium difficile
Experimental: (§1) Each compound was assayed against a panel of anaerobic bacteria in culture, consisting of Gram-positive organisms, such as Lactobacilli, Bifidobacteria, Clostridium spp., and Gram-negative bacteria, such as […] fragilis spp., according to guidelines of the Clinical and Laboratory Standards Institute (CLSI document M11-A7, CLSI, Wayne, Pa., 2007). […] One tenth mL of diluted bacteria containing 500-1000 colony-forming units (CFU) was plated and spread, and the plates incubated at 37° C. for 24-48 hours. MIC (minimum inhibitory concentration) is equivalent to the lowest concentration in μg/ml at which growth, i.e., colony formation, is not observed. […] Bacteria were assayed using a reference agar dilution method. Drug dilutions and drug-supplemented agar plates were prepared manually. The test organisms were maintained frozen at −80° C. The isolates were sub-cultured on Supplemented Brucella Agar (SBA) plates in a Bactron II anaerobic chamber and incubated for 48 hours at 35-36° C. in the Bactron II anaerobe chamber. Following inoculation, the drug-supplemented plates were incubated at 35° C. for 48 hours in the anaerobic environment (5% hydrogen, 5% carbon dioxide, 90% nitrogen) of the Bactron II. The MIC in μg/ml was read per Clinical and Laboratory Standards Institute guidelines.

[3] = test system: Ba. fragilis; experiment: agar dilution MIC assay of anaerobic bacteria; assay type: cell-based; details: Bacteroides fragilis, B. fragilis, Micromyx Number 0123 (ATCC strain), Table 2
Experimental: as §1

`CN[C@H](CC(C)C)C(=O)N[C@H]1C(=O)N[C@@H](CC(N)=O)C(=O)N[C@H]2C(=O)N[C@H]3C(=O)N[C@H](C(=O)N[C@H](C(=O)O)c4cc(O)cc(O)c4-c4cc3ccc4O)[C@H](O)c3ccc(c(Cl)c3)Oc3cc2cc(c3O[C@@H]2O[C@H](CO)[C@@H](O)[C@H](O)[C@H]2O[C@H]2C[C@](C)(N)[C@H](O)[C@H](C)O2)Oc2ccc(cc2Cl)[C@H]1O` [vancomycin HCl, reference compound] was tested, and the “% Survivors at 120 hr” value [1] was 100%, the “Survivors at 24 hr” value [1] was 6 and the “Survivors at 48 hr” value [1] was 6. The “Survivors at 66 hr” value [1] was 6, the “Survivors at 72 hr” value [1] was 6 and the “Survivors at 96 hr” value [1] was 6.

`CCOCCn1cnc2nc(NCc3ccc(Cl)c(Cl)c3)[nH]c(=O)c21` [Compound 325E] showed an MIC ([2]; Clostridioides difficile, C. diff., Micromyx Number 3579, Table 2, read-out: MIC) of 2 µg/mL (≈ 5.23 µM), an MIC ([2]; Clostridioides difficile, C. diff., Micromyx Number 3580, Table 2, read-out: MIC) of 2 µg/mL (≈ 5.23 µM) and an MIC ([2]; Clostridioides difficile, C. diff., Micromyx Number 3581, Table 2, read-out: MIC) of 1 µg/mL (≈ 2.62 µM). For the same compound, the MIC ([2]; Clostridioides difficile, C. diff., Micromyx Number 3582 (ATCC strain), Table 2, read-out: MIC) was 2 µg/mL (≈ 5.23 µM) and the MIC [3] was > 32 µg/mL.

`O=c1[nH]c(NCc2ccc(Cl)c(Cl)c2)nc2ncn(CCCCN3CCOCC3)c12` [Compound 258D, 7-[4-(N-morpholinyl)butyl]-2-(3,4-dichlorobenzylamino)-6-oxopurine] gave an MIC ([2]; Clostridioides difficile, C. diff. Strain no. 18285, Table 4, read-out: MIC) of 8 µg/mL (≈ 17.7 µM), an MIC ([2]; Clostridioides difficile, C. diff. Strain no. 19265, Table 4, read-out: MIC) of 4 µg/mL (≈ 8.86 µM) and an MIC ([2]; Clostridioides difficile, C. diff. Strain no. 19273, Table 4, read-out: MIC) of 8 µg/mL (≈ 17.7 µM). For the same compound, the MIC ([2]; Clostridioides difficile, C. diff. Strain no. 19281, Table 4, read-out: MIC) was 4 µg/mL (≈ 8.86 µM), the MIC ([2]; Clostridioides difficile, C. diff. Strain no. 19291, Table 4, read-out: MIC) was 4 µg/mL (≈ 8.86 µM) and the MIC ([2]; Clostridioides difficile, C. diff. Strain no. 19369, Table 4, read-out: MIC) was 16 µg/mL (≈ 35.4 µM). For the same compound, the MIC ([2]; Clostridioides difficile, C. diff. Strain no. 19382, Table 4, read-out: MIC) was 4 µg/mL (≈ 8.86 µM), the MIC ([2]; Clostridioides difficile, C. diff. Strain no. 19540, Table 4, read-out: MIC) was 4 µg/mL (≈ 8.86 µM) and the MIC ([2]; Clostridioides difficile, C. diff. Strain no. 19580, Table 4, read-out: MIC) was 2 µg/mL (≈ 4.43 µM). It also gave an MIC ([2]; Clostridioides difficile, C. diff. Strain no. 19680, Table 4, read-out: MIC) of 4 µg/mL (≈ 8.86 µM), an MIC ([2]; Clostridioides difficile, C. diff. Strain no. 19681, Table 4, read-out: MIC) of 4 µg/mL (≈ 8.86 µM) and an MIC ([2]; Clostridioides difficile, C. diff. Strain no. 19683, Table 4, read-out: MIC) of 8 µg/mL (≈ 17.7 µM). For the same compound, the MIC ([2]; Clostridioides difficile, C. diff. Strain no. 19687, Table 4, read-out: MIC) was 8 µg/mL (≈ 17.7 µM), the MIC ([2]; Clostridioides difficile, C. diff. Strain no. 20066, Table 4, read-out: MIC) was 8 µg/mL (≈ 17.7 µM) and the MIC ([2]; Clostridioides difficile, C. diff. Strain no. 20152, Table 4, read-out: MIC) was 16 µg/mL (≈ 35.4 µM). It also gave an MIC ([2]; Clostridioides difficile, C. diff. Strain no. 20307, Table 4, read-out: MIC) of 4 µg/mL (≈ 8.86 µM), an MIC ([2]; Clostridioides difficile, C. diff. Strain no. 20494, Table 4, read-out: MIC) of 4 µg/mL (≈ 8.86 µM) and an MIC ([2]; Clostridioides difficile, C. diff. Strain no. 20680, Table 4, read-out: MIC) of 4 µg/mL (≈ 8.86 µM). The MIC ([2]; Clostridioides difficile, C. diff. Strain no. 20934, Table 4, read-out: MIC) was 4 µg/mL (≈ 8.86 µM) and the MIC ([2]; Clostridioides difficile, C. diff. Strain no. 21099, Table 4, read-out: MIC) was 2 µg/mL (≈ 4.43 µM).

`O=c1[nH]c(NCc2ccc(Cl)c(Cl)c2)nc2ncn(CCN3CCOCC3)c12` [Compound 362E] showed an MIC ([2]; C. diff. Strain no. 18285, Table 4) of 4 µg/mL (≈ 9.45 µM), an MIC ([2]; C. diff. Strain no. 19265, Table 4) of 2 µg/mL (≈ 4.72 µM) and an MIC ([2]; C. diff. Strain no. 19273, Table 4) of 4 µg/mL (≈ 9.45 µM). The MIC ([2]; C. diff. Strain no. 19281, Table 4) was 2 µg/mL (≈ 4.72 µM), the MIC ([2]; C. diff. Strain no. 19291, Table 4) was 2 µg/mL (≈ 4.72 µM) and the MIC ([2]; C. diff. Strain no. 19369, Table 4) was 8 µg/mL (≈ 18.9 µM). It also gave an MIC ([2]; C. diff. Strain no. 19382, Table 4) of 2 µg/mL (≈ 4.72 µM), an MIC ([2]; C. diff. Strain no. 19540, Table 4) of 2 µg/mL (≈ 4.72 µM) and an MIC ([2]; C. diff. Strain no. 19580, Table 4) of 2 µg/mL (≈ 4.72 µM). It also gave an MIC ([2]; C. diff. Strain no. 19680, Table 4) of 2 µg/mL (≈ 4.72 µM), an MIC ([2]; C. diff. Strain no. 19681, Table 4) of 2 µg/mL (≈ 4.72 µM) and an MIC ([2]; C. diff. Strain no. 19683, Table 4) of 4 µg/mL (≈ 9.45 µM). The MIC ([2]; C. diff. Strain no. 19687, Table 4) was 4 µg/mL (≈ 9.45 µM), the MIC ([2]; C. diff. Strain no. 20066, Table 4) was 4 µg/mL (≈ 9.45 µM) and the MIC ([2]; C. diff. Strain no. 20152, Table 4) was 8 µg/mL (≈ 18.9 µM). For the same compound, the MIC ([2]; C. diff. Strain no. 20307, Table 4) was 2 µg/mL (≈ 4.72 µM), the MIC ([2]; C. diff. Strain no. 20494, Table 4) was 2 µg/mL (≈ 4.72 µM) and the MIC ([2]; C. diff. Strain no. 20680, Table 4) was 2 µg/mL (≈ 4.72 µM). For the same compound, the MIC ([2]; C. diff. Strain no. 20934, Table 4) was 1 µg/mL (≈ 2.36 µM), the MIC ([2]; C. diff. Strain no. 21099, Table 4) was 2 µg/mL (≈ 4.72 µM) and the “activity against C. diff. strains compared with 359E (in words)” value ([2]; summary of Table 4) was “preferred activity against C. diff. strains”.

— patent US8796292B2, “Selective antibacterials for clostridium difficile infections” (GLSynthesis Inc., priority 2009, dated 2014)
